PubChem BioAssay AID489041 (Sanford-Burnham Center for Chemical Genomics, 2010)
Active and inactive are the calls of the source. No rule for the calls is given here.

Tested on: HEK-293T NF-kB luciferase reporter counterscreen, luminescence
Assay: NF-kB reporter inhibition in HEK-293T, dose response, counter-screen for T-cell antigen receptor NF-kB inhibitors, HEK-293T cells, luminescence (AID 489041)

Compound	IC50
CCOC(=O)c1[nH]c(C)c(C(=O)Nc2cc(OC)ccc2OC)c1C	> 80 µM (inactive)
Cc1ccc2c(c1)COc1c3ccc(C(=O)O)cc3nn1-2	12.9 µM
CC(=O)Nc1ccc(S(=O)(=O)N2CCCc3ccccc32)cc1	26.6 µM (inactive)
CN(Cc1ccccc1)C1=CC(=[N+]2CCCCC2)CC(C)(C)C1	0.73 µM
COc1cccc(N2CCN(C(=O)c3ccc(CS(=O)c4ccccc4Cl)o3)CC2)c1 (centres undefined)	6.1 µM
O=C(Nc1nc(-c2ccccn2)cs1)c1ccc(Cl)s1	4.44 µM
C=C(C=O)C[C@@H]1C[C@H](O)C2OC3C[C@]4(C)OC5/C=C\CC6OC7C(CC=CCC6OC5CCCC4OC3CC2O1)OC1CC2OC3CC(=O)OC3C[C@@H](C)C[C@@]2(C)OC1C[C@@H]7C (some centres undefined)	> 80 µM (inactive)
Cc1cc(C(C)(C)C)cc(C)c1C[n+]1ccc2ccccc2c1	4.34 µM
CC1CCN(c2c(NCc3ccc(C(=O)N4CCc5ccccc54)cc3)c(=O)c2=O)CC1	7.14 µM
COc1ccc(C(=O)/C(C#N)=N/Nc2ccc([N+](=O)[O-])cc2)cc1	0.32 µM
CC(=O)c1ccc(N2CCN(S(=O)(=O)c3ccc4c(c3)CC(C)N4C(=O)C3CC3)CC2)cc1 (centres undefined)	3.06 µM
CCOc1ccc2c(c1)sc(N)[n+]2Cc1cc(C)cc2cccnc12	7.7 µM
CCC(C)C(=O)N[C@@H](c1ccccc1)[C@@H](O)C(=O)O[C@H]1C[C@@]2(O)[C@@H](OC(=O)c3ccccc3)C3[C@](C)(C(=O)[C@H](OC(C)=O)C(=C1C)C2(C)C)[C@@H](O)C[C@H]1OC[C@@]31OC(C)=O (some centres undefined)	> 80 µM (inactive)
Cc1ccc(-c2cc(C(F)F)n3ncc(C(=O)N4CCc5ccccc54)c3n2)cc1	9.99 µM
Cc1c(C(=O)OCC(C)C)[nH]c2c1C(=O)CC(c1cccs1)C2 (centres undefined)	0.41 µM
CC(Nc1ncnc2ccccc12)c1ccccc1 (centres undefined)	3.28 µM
COc1ccccc1N1CCN(C(=O)c2cc(=O)c3cc(C)cc(C)c3o2)CC1	76 µM (inactive)
Cc1ccc(Nc2nc(-c3c(C)nc4ncccn34)cs2)cc1	1 µM
Cc1cccc(N(C)S(=O)(=O)c2ccc(-c3cnc(C4CC4)o3)cc2)c1	0.57 µM
O=Cc1cc2ccccc2nc1SCc1ccc(Cl)c(Cl)c1	5.54 µM
Cc1cnc(NC(=O)c2ccc3c(c2)OCCO3)s1	3.78 µM
COC(=O)C(Cc1ccc(N(CCCl)CCCl)cc1)N=Cc1ccccc1O (centres undefined)	43.4 µM (inactive)
CN(C)c1ccc(-[n+]2c(-c3ccccc3)cc(-c3ccccc3)cc2-c2ccccc2)cc1	1.48 µM
CCO[C@@H]1OC(C(=O)NCc2nc3ccccc3[nH]2)=C[C@H](C(C)(C)C)[C@H]1CCCO	1.37 µM
Nc1nc(-c2ccccc2)cc(N2CCCCC2)n1	2.23 µM
CCCCCCCOc1ccc(OC(=O)c2ccncc2)cc1	> 80 µM (inactive)

Compound	IC50
Cc1cc(C)nc(SCC(=O)Nc2ccnc3ccccc23)n1	9.08 µM
O=C(c1ccccc1)c1cc([N+](=O)[O-])ccc1N1CCOCC1	17.1 µM
CCCCC(=O)NC(c1ccc(Cl)cc1)c1ccc2cccnc2c1O (centres undefined)	> 80 µM (inactive)
Cc1cc(C)c(CN2CCN(C(=O)Cn3cnc4c(OCc5ccccc5)ncnc43)CC2)c(C)c1	2.6 µM
CC1(C)Cc2c(sc(NC(=O)COc3cccc4ccccc34)c2C#N)C(C)(C)N1	> 80 µM (inactive)
O=C(Nc1ccc(N2CCN(C(=O)c3ccc(Cl)cc3)CC2)cc1)c1ccc2c(c1)OCCO2	3.1 µM
COc1ccc(NC(=O)C(=O)NCC2CCCN2S(=O)(=O)c2cccs2)cc1 (centres undefined)	21 µM (inactive)
CC(Oc1ccc(Cl)cc1Cl)C(=O)Nc1ccncc1 (centres undefined)	6.73 µM
CCN(CC)S(=O)(=O)c1ccc(NC(=O)c2ccc(CN3CCOCC3)cc2)cc1	2.54 µM
COc1ccc(OC)c(C2CC(=O)c3c([nH]c(C(=O)OC(C)C)c3C)C2)c1 (centres undefined)	2.29 µM
COc1cc(NS(=O)(=O)c2ccc(C)cc2)c2ncccc2c1	1.65 µM
O=C(c1cc(-c2ccncc2)nc2c(Cl)cccc12)N1CCN(c2ccccc2F)CC1	12.5 µM
O=C(Nc1ncc(Cc2ccc(SC(F)F)cc2)s1)c1ccc(OC(F)F)cc1	3.66 µM
COc1ccc(C(NC(=O)C(C)C)c2ccc3cccnc3c2O)cc1 (centres undefined)	> 80 µM (inactive)
O=C(N/N=C(\c1ccccc1)c1cccnc1)c1cccc(F)c1	> 80 µM (inactive)
COc1ccc(Nc2cc(C)nc(-n3nc(C)cc3C)n2)cc1	6.55 µM
CCOC(=O)c1[nH]c(C)c(C(=O)OCC(=O)NC(C)c2ccc(F)cc2)c1C (centres undefined)	> 80 µM (inactive)
COc1cc(C2=NOC(C(=O)NCc3ccc(F)cc3)C2)cc(OC)c1OC (centres undefined)	6.34 µM
CCn1c(C)cc(C(=O)CN2C(=O)c3ccccc3S2(=O)=O)c1C	5.36 µM
CCCCc1ccc(NC(=O)c2ccc(N(C)S(C)(=O)=O)cc2)cc1	> 80 µM (inactive)
COc1ccc(/C=N/Nc2cc(C)nc3ccc(OC)cc23)c(OC)c1	25.7 µM (inactive)
COc1ccc(C(=O)N(C)Cc2cnn(Cc3ccccc3)c2)cc1S(=O)(=O)N1CCOCC1	22.9 µM (inactive)
CCOc1ccc2c(c1)OC(c1ccc(C)cc1)(C(F)(F)F)NC2=O (centres undefined)	5.57 µM
Cc1[nH]n(-c2ccccc2)c(=O)c1/C=N/Nc1nncc(-c2ccccc2)n1	0.2 µM
COc1ccc(-c2csc(NC(=O)C3CCN(c4ncnc5sc(C)c(C)c45)CC3)n2)cc1OC	13.1 µM
Cc1ccccc1NC1=C/C(=N\S(=O)(=O)c2cccs2)c2ccccc2C1=O	0.41 µM

Compound	IC50
CCCCCOC(=O)c1[nH]c2c(c1C)C(=O)CC(c1ccco1)C2 (centres undefined)	0.41 µM
O=C1C=CC(O)(c2cc(=O)c3c(O)cc(O)cc3o2)C=C1	20.5 µM (inactive)
CC1=NNC(=O)/C1=C\c1cn(-c2ccccc2)nc1-c1ccc(Cl)cc1	7.76 µM
COc1cccc(/C=N/Nc2ncnc3scc(-c4ccccc4)c23)c1O	4.6 µM
O=C(Nc1ccccc1Cl)/C(Cl)=C(\Cl)S(=O)c1ccccc1 (centres undefined)	9.87 µM
CCOc1ccccc1C1CC(=O)Nc2cc3c(cc21)OCCO3 (centres undefined)	4.19 µM
O=C(N/N=C/c1c(O)ccc2ccccc12)c1ccc(Br)o1	0.55 µM
O=C(Nc1ccc(Cc2ccncc2)cc1)c1ccc(S(=O)(=O)N2CCCC2)cc1	2.75 µM
COc1ccccc1C(=O)Nc1nc2ccccc2s1	0.8 µM
COc1ccc(-c2ccc3oc(-c4ccc(OC)cc4)c(C#CCO)c3c2)cc1	14.2 µM
COC(=O)c1ccc(Oc2cc(C)nc(SC)n2)cc1	28.8 µM (inactive)
COc1ccc(OC)c(Nc2cc(-c3ccccc3)nc(N)n2)c1	3.41 µM
O=C(N/N=C/c1ccccc1Cl)c1[nH]c2ccc(Br)cc2c1-c1ccccc1	38.3 µM (inactive)
COc1cc(C(=O)N/N=C/c2cc([N+](=O)[O-])cs2)cc(OC)c1OC	1.91 µM
CCn1c2ccccc2c2cc(Nc3cc(C)nc4ncnn34)ccc21	1.34 µM
Cc1c(C)c2cccnc2c2ncccc12	23.1 µM (inactive)
Cc1cc(NC(=O)CSc2nc3c(sc4ccccc43)c(=O)n2CCCN2CCOCC2)n[nH]1	1.02 µM
CCN(CC)c1ccc(/C=C/c2ccc3ccc(OC)cc3[n+]2CC)cc1	0.72 µM
CCCCCCCCCCCCCCCC[n+]1ccc(C(N)=O)cc1	46.7 µM (inactive)
Cc1ccc(O)c(NC(=O)c2cc(-c3ccccc3)on2)c1	> 80 µM (inactive)
CCN1C=CC(=C2C(=O)c3ccccc3C2=O)C=C1	0.92 µM
CC(=O)Nc1ccc(S(=O)(=O)N2c3ccc(F)cc3CCC2C)cc1 (centres undefined)	14.6 µM
CCN(CC)c1ccc(/C=N/NC(=O)c2nnn(-c3nonc3N)c2C(C)C)c(O)c1	0.22 µM
CC(=O)O[C@H]1C(=O)[C@]2(C)[C@H]([C@H](OC(=O)c3ccccc3)[C@]3(O)C[C@H](OC(=O)[C@H](O)[C@@H](NC(=O)c4ccccc4)c4ccccc4)C(C)=C1C3(C)C)[C@]1(OC(C)=O)CO[C@@H]1C[C@@H]2O	76.2 µM (inactive)
CCOc1cccc(-c2nnc3n2N=C(c2cc(OC)ccc2OC)CS3)c1	4.82 µM
COc1ccc2nc(C)cc(N/N=C/c3ccc(F)cc3)c2c1	22.4 µM (inactive)

Compound	IC50
Cc1ccc(C)c(CSc2nc3[nH]ncc3c(=O)[nH]2)c1	4.88 µM
COc1cc(NCCCCCCCN)c2ncccc2c1	11.8 µM
CCC(O)C1CCN(C(=O)c2cc(COc3ccc4ncccc4c3)on2)CC1 (centres undefined)	1.72 µM
O=C(OCCN1C(=O)c2cccc3c(N4CCOCC4)ccc(c23)C1=O)c1ccc(Cl)cc1	7.66 µM
COc1cc2nc(CN3CC=C(c4ccccc4)CC3)[nH]c(=O)c2cc1OC	2.5 µM
COc1ccc(Cl)cc1NC(=O)CN(C)CC(=O)Nc1ccccc1N1CCOCC1	12 µM
Cc1cc(-c2ccc(S(=O)(=O)N(C)c3ccc(C)c(C)c3)s2)on1	7.86 µM
COc1cc(-c2noc(C)c2-c2ccc(N(C)C)nc2)cc(OC)c1OC	1.94 µM
COc1ccc(NS(=O)(=O)c2ccc(-c3cnc(C4CC4)o3)cc2)cc1OC	1 µM
O=c1cc(-c2ccccc2)[nH]c2ccccc12	15.5 µM
Cc1c(C(=O)OC2CCCC2)[nH]c2c1C(=O)CC(c1ccco1)C2 (centres undefined)	0.45 µM
c1ccc(-c2noc(-c3ccc4ccccc4c3)n2)nc1	3.2 µM
Cc1ccc(Nc2cc(C)nn2-c2nc(C)cc(=O)[nH]2)cc1	> 80 µM (inactive)
Cc1cc(/C=C2\Sc3ccccc3N2C)cc(C)[n+]1CC1CCCO1 (centres undefined)	3.74 µM
CCOC(=O)c1[nH]c2c(c1C)C(=O)CC(c1ccc(F)cc1)C2 (centres undefined)	> 80 µM (inactive)
Cc1ccc2nc(-c3ccc4c(c3)OCCO4)cn2c1	2.34 µM
CCOC(=O)c1ccc(Nc2nc(N)c3cc(OC)c(OC)cc3n2)cc1	> 80 µM (inactive)
CCCCCCCOc1ccc(OC(=O)c2cccnc2)cc1	> 80 µM (inactive)
COc1ccccc1CNS(=O)(=O)c1ccc(-c2cc(C)no2)cc1	8.48 µM
COC(=O)CCC(=O)NC(=S)Nc1sc(C)c(C)c1C(N)=O	0.74 µM
COc1ccc(COC(=O)c2cc([N+](=O)[O-])ccc2N2CCOCC2)cc1F	2.29 µM
N/C(=N\OCc1ccc([N+](=O)[O-])cc1)c1ccccn1	1.78 µM
CC1=Nc2ccccc2/C1=C\c1sc(Nc2ccc(C)cc2)nc1O	3.6 µM
O=C(Sc1cccc2cccnc12)c1ccc(F)cc1	34.2 µM (inactive)
CCOC(=O)c1[nH]c(C)c(C(=O)c2cc(F)ccc2F)c1C	6.54 µM
CCOC(=O)c1ccc(NC(=O)Cn2cnc3cc(C)c(C)cc32)cc1	0.88 µM
